Measurements as given in patent US20190330224A1, “ACC INHIBITORS AND USES THEREOF” (Gilead Apollo, LLC, priority 2015, published 2019).
≈ marks a conversion by molar mass, not a printed value.

Tests used:
[1] = test system: C. parapsilosis ATCC 22019; assay: Anti-Fungal Activity Assay (broth microtiter MIC), C. parapsilosis; type: cell-based, Candida parapsilosis; details: Lodderomyces parapsilosis, ATCC22019, 48 h, 3 replicates; MIC recorded at 48 h; read-out: MIC C. parapsilosis ATCC 22019
Method in brief: (§1)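 Susceptibility testing used direct colony suspensions in RPMI 1640+MOPS from Sabouraud dextrose agar grown at 35° C. Endpoints were visual MICs at 48 h under CLSI M27-A3 microtiter conditions, plus a 24 h reading for soraphen.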

C. krusei ATCC 6258 = assay: Anti-Fungal Activity Assay (broth microtiter MIC), C. krusei; type: cell-based, Candida krusei; details: Pichia kudriavzevii, ATCC6258, 48 h, 3 replicates; MIC recorded at 48 h; read-out: MIC C. krusei ATCC 6258
Method in brief: as §1

Human ACC2 = Human ACC2 (Homo sapiens, UniProt O00763); assay: In vitro ACC2 inhibition assay (ADP-Glo), human ACC2; type: biochemical; details: 5 nM ACC2, 20 μM ATP, 20 μM acetyl-CoA
Fungal ACC2 = Fungal ACC2 (UniProt Q00955); details: read-out: Fungal ACC2 (IC50, in vitro ACC2 inhibition)
C. albicans ATCC 90028 = assay: Anti-Fungal Activity Assay (broth microtiter MIC), C. albicans; type: cell-based, Candida albicans; details: Candida albicans, ATCC90028, 48 h, 3 replicates; MIC recorded at 48 h; read-out: MIC C. albicans ATCC 90028
Method in brief: as §1

Sequence of Human ACC2 (O00763 whole entry): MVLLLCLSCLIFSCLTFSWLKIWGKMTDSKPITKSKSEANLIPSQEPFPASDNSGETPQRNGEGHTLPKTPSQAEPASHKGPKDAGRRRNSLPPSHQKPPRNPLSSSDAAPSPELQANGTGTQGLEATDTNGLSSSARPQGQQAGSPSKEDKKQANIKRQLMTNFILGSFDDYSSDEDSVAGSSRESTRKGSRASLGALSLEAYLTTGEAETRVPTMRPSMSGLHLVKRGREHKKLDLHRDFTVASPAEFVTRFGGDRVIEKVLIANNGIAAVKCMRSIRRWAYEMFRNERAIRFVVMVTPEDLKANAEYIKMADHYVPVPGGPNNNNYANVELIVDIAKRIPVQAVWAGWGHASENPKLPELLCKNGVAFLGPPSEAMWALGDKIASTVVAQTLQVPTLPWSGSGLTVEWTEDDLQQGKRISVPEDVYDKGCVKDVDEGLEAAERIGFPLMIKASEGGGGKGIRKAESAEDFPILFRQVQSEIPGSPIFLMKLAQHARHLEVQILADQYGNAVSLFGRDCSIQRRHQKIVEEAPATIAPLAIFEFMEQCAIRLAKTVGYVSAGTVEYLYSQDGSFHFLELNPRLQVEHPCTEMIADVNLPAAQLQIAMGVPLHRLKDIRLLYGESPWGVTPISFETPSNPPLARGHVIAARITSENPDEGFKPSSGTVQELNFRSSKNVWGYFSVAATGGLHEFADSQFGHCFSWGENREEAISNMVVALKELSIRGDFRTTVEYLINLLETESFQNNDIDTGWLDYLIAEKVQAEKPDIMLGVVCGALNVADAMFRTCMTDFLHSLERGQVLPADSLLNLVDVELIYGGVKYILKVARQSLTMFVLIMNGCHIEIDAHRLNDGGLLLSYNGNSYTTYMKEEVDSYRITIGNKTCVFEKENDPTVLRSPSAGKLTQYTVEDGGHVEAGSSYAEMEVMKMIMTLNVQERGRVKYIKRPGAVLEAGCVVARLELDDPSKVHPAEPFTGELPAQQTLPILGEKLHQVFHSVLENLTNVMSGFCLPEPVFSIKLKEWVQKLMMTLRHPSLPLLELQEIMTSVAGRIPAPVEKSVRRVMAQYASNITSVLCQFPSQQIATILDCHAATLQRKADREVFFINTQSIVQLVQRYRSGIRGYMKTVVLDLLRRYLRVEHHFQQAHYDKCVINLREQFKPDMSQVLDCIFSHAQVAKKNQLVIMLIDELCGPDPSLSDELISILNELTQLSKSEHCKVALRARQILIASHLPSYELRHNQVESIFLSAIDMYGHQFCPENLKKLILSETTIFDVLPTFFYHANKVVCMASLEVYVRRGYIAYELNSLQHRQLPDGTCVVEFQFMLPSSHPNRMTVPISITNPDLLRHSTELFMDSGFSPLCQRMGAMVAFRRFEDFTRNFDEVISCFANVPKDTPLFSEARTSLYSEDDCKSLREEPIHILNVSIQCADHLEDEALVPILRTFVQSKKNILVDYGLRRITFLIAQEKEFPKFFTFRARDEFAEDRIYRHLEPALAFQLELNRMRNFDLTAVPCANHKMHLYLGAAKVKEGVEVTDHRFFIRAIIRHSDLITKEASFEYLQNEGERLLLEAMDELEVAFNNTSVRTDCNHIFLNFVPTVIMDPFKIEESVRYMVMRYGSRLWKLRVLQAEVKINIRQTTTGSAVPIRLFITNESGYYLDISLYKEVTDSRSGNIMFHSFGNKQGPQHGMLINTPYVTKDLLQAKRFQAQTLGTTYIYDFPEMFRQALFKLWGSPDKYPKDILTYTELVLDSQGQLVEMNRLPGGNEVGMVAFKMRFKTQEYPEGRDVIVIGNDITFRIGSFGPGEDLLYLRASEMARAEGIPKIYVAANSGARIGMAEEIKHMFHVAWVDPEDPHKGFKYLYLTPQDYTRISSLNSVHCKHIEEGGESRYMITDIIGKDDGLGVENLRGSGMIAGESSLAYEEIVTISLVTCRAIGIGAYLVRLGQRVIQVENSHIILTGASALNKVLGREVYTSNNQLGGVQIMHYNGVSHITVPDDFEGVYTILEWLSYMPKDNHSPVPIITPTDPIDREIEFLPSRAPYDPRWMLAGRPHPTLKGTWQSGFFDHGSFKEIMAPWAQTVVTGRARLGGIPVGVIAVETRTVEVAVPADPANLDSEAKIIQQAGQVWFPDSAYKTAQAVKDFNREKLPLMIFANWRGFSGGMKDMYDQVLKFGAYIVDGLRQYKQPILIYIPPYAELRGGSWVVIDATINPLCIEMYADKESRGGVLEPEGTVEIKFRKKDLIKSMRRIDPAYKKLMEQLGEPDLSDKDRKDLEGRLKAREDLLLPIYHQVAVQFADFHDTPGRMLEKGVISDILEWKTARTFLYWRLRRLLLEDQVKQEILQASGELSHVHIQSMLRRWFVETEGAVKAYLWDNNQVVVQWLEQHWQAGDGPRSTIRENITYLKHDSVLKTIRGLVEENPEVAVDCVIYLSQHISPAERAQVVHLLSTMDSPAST
Sequence of Fungal ACC2 (Q00955 whole entry): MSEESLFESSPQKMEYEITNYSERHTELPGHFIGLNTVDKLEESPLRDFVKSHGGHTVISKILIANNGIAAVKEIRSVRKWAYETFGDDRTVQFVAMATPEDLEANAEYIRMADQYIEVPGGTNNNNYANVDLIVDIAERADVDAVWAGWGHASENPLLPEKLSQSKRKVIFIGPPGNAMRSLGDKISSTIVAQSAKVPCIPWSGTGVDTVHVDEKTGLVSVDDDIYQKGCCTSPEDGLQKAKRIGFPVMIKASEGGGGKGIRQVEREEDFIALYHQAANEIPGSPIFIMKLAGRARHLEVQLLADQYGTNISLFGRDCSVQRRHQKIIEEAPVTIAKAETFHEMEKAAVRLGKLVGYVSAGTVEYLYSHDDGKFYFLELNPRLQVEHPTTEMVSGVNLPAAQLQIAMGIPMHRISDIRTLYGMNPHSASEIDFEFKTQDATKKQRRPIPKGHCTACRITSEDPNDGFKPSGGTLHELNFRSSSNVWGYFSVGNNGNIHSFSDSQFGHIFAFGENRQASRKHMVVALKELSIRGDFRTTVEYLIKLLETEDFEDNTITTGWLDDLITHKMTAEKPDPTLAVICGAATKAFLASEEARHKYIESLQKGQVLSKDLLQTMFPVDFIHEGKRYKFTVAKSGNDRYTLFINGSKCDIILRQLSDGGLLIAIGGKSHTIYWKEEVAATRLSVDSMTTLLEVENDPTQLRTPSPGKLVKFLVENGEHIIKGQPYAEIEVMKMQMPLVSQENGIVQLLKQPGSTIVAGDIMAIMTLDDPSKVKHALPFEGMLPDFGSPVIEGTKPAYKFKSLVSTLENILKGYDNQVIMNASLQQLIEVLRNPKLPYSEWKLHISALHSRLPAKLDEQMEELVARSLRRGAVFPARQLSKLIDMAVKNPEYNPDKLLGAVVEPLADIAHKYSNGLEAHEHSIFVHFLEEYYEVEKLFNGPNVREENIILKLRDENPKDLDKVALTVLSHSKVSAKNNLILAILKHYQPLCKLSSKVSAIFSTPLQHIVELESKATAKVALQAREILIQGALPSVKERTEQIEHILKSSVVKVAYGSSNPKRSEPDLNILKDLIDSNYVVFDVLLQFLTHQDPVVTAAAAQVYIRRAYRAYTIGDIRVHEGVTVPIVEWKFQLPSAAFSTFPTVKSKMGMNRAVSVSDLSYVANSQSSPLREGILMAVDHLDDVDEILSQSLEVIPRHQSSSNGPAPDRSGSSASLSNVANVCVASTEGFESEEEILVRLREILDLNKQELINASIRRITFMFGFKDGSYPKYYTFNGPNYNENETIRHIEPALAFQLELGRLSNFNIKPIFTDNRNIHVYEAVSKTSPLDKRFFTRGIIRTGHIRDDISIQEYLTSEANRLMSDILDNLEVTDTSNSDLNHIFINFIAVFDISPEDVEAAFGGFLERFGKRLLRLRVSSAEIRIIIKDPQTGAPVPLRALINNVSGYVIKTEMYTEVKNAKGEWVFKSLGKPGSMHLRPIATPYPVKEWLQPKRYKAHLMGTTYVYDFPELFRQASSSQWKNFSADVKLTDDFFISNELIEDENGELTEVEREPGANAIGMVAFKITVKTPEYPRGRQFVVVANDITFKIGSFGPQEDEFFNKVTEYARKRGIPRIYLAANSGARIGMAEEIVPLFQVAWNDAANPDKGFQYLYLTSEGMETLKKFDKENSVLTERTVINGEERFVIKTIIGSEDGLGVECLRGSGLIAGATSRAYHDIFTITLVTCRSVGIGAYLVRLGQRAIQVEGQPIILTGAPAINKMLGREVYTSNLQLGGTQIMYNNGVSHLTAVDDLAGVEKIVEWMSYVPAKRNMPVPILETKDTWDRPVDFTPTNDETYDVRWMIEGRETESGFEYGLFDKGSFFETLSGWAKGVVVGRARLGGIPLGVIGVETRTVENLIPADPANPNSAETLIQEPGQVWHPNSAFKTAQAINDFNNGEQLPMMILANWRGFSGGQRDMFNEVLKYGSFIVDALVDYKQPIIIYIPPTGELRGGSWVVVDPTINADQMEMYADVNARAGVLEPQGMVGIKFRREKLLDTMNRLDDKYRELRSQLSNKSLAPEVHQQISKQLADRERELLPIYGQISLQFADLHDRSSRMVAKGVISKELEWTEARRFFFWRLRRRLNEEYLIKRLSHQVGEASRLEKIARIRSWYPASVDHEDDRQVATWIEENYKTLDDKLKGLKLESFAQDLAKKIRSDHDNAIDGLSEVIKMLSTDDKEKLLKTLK

SMILES	MIC [1] [µg/mL]	MIC (C. krusei ATCC 6258) [µg/mL]	IC50 (Human ACC2) [nM]	IC50 (Fungal ACC2) [nM]	MIC (C. albicans ATCC 90028) [µg/mL]
COc1ccc(F)cc1[C@H](Cn1c(=O)n([C@@H]2CCN(C)C2=O)c(=O)c2c(C)c(-n3nccn3)sc21)OCCCO [Compound I-155, 1-((R)-2-(5-fluoro-2-methoxyphenyl)-2-(3-hydroxypropoxy)ethyl)-5-methyl-3-((R)-1-methyl-2-oxopyrrolidin-3-yl)-6-(2H-1,2,3-triazol-2-yl)thieno[2,3-d]pyrimidine-2,4(1H,3H)-dione]	2.1 to 4 (≈ 3.67 to 6.99 µM)	2.1 to 4 (≈ 3.67 to 6.99 µM)	2 to 10	0.7 to 2	2.1 to 4 (≈ 3.67 to 6.99 µM)
COc1ccc(F)cc1[C@H](Cn1c(=O)n([C@@H]2CNC(=O)C2)c(=O)c2c(C)c(-n3nccn3)sc21)OCCO [Compound I-91, 1-((R)-2-(5-fluoro-2-methoxyphenyl)-2-(2-hydroxy-ethoxy)ethyl)-5-methyl-3-((S)-5-oxopyrrolidin-3-yl)-6-(2H-1,2,3-triazol-2-yl)thieno[2,3-d]pyrimidine-2,4(1H,3H)-dione]	2.1 to 4 (≈ 3.86 to 7.35 µM)	2.1 to 4 (≈ 3.86 to 7.35 µM)	2 to 10	0.7 to 2	2.1 to 4 (≈ 3.86 to 7.35 µM)
COc1ccc(F)cc1[C@H](Cn1c(=O)n([C@]2(C)CNC(=O)C2)c(=O)c2c(C)c(-n3nccn3)sc21)OCCO [Compound I-119, 1-((R)-2-(5-fluoro-2-methoxyphenyl)-2-(2-hydroxyethoxy)ethyl)-5-methyl-3-((S)-3-methyl-5-oxopyrrolidin-3-yl)-6-(2H-1,2,3-triazol-2-yl)thieno[2,3-d]pyrimidine-2,4(1H,3H)-dione]	2.1 to 4 (≈ 3.76 to 7.16 µM)	2.1 to 4 (≈ 3.76 to 7.16 µM)	10 to 100	2 to 10	2.1 to 4 (≈ 3.76 to 7.16 µM)
CCN1CCCC(n2c(=O)c3c(C)c(-n4nccn4)sc3n(C[C@H](OC3CCOCC3)c3cc(F)ccc3OC)c2=O)C1=O (stereo partly drawn) [Compound I-23, 3-(1-ethyl-2-oxopiperidin-3-yl)-1-((R)-2-(5-fluoro-2-methoxyphenyl)-2-((tetrahydro-2H-pyran-4-yl)oxy)ethyl)-5-methyl-6-(2H-1,2,3-triazol-2-yl)thieno[2,3-d]pyrimidine-2,4(1H,3H)-dione]	0.25 to 1 (≈ 0.399 to 1.6 µM)	0.25 to 1 (≈ 0.399 to 1.6 µM)	2 to 10	0.7 to 2	0.25 to 1 (≈ 0.399 to 1.6 µM)
COCCO[C@@H](Cn1c(=O)n([C@@]2(C)CCC(=O)N(C)C2)c(=O)c2c(C)c(-n3nccn3)sc21)c1cc(F)ccc1OC [Compound I-137, 3-((S)-1,3-dimethyl-6-oxopiperidin-3-yl)-1-((R)-2-(5-fluoro-2-methoxyphenyl)-2-(2-methoxyethoxy)ethyl)-5-methyl-6-(2H-1,2,3-triazol-2-yl)thieno[2,3-d]pyrimidine-2,4(1H,3H)-dione]	2.1 to 4 (≈ 3.5 to 6.66 µM)	2.1 to 4 (≈ 3.5 to 6.66 µM)	10 to 100	2 to 10	2.1 to 4 (≈ 3.5 to 6.66 µM)
COc1ccccc1[C@H](Cn1c(=O)n([C@@H]2CCCNC2=O)c(=O)c2c(C)c(-c3ncco3)sc21)OCCO [Compound I-61, 1-((R)-2-(2-hydroxyethoxy)-2-(2-methoxyphenyl)ethyl)-5-methyl-6-(oxazol-2-yl)-3-((R)-2-oxopiperidin-3-yl)thieno[2,3-d]pyrimidine-2,4(1H,3H)-dione]	2.1 to 4 (≈ 3.88 to 7.4 µM)	2.1 to 4 (≈ 3.88 to 7.4 µM)	10 to 100	0.7 to 2	2.1 to 4 (≈ 3.88 to 7.4 µM)
COc1ccc(F)cc1[C@H](Cn1c(=O)n([C@H]2CCN(C)C2=O)c(=O)c2c(C)c(-n3cccn3)sc21)O[C@H]1CC[C@@H](O)CC1 [Compound I-182]	2.1 to 4 (≈ 3.43 to 6.54 µM)	2.1 to 4 (≈ 3.43 to 6.54 µM)	10 to 100	0.7 to 2	2.1 to 4 (≈ 3.43 to 6.54 µM)
COCCO[C@@H](Cn1c(=O)n([C@]2(C)CCC(=O)N(C)C2)c(=O)c2c(C)c(-n3nccn3)sc21)c1cc(F)ccc1OC [Compound I-136, 3-((R)-1,3-dimethyl-6-oxopiperidin-3-yl)-1-((R)-2-(5-fluoro-2-methoxyphenyl)-2-(2-methoxyethoxy)ethyl)-5-methyl-6-(2H-1,2,3-triazol-2-yl)thieno[2,3-d]pyrimidine-2,4(1H,3H)-dione]	2.1 to 4 (≈ 3.5 to 6.66 µM)	2.1 to 4 (≈ 3.5 to 6.66 µM)	10 to 100	0.7 to 2	2.1 to 4 (≈ 3.5 to 6.66 µM)
COCCO[C@@H](Cn1c(=O)n([C@@H]2CCN(C(C)C)C2=O)c(=O)c2c(C)c(-n3nccn3)sc21)c1cc(F)ccc1OC [Compound I-105, 1-((R)-2-(5-fluoro-2-methoxyphenyl)-2-(2-methoxy-ethoxy)ethyl)-3-((R)-1-isopropyl-2-oxopyrrolidin-3-yl)-5-methyl-6-(2H-1,2,3-triazol-2-yl)thieno[2,3-d]pyrimidine-2,4(1H,3H)-dione]	2.1 to 4 (≈ 3.5 to 6.66 µM)	2.1 to 4 (≈ 3.5 to 6.66 µM)	10 to 100	2 to 10	2.1 to 4 (≈ 3.5 to 6.66 µM)
COCCO[C@@H](Cn1c(=O)n(CCN2CCCNC2=O)c(=O)c2c(C)c(-n3nccn3)sc21)c1cc(F)ccc1OC [Compound I-100, (R)-1-(2-(5-fluoro-2-methoxyphenyl)-2-(2-methoxy-ethoxy)ethyl)-5-methyl-3-(2-(2-oxotetrahydropyrimidin-1 (2H)-yl)ethyl)-6-(2H-1,2,3-triazol-2-yl)thieno[2,3-d]pyrimidine-2,4(1H,3H)-dione]	2.1 to 4 (≈ 3.49 to 6.65 µM)	2.1 to 4 (≈ 3.49 to 6.65 µM)	10 to 100	2 to 10	2.1 to 4 (≈ 3.49 to 6.65 µM)
COc1ccc(F)cc1[C@H](Cn1c(=O)n([C@H]2CCCNC2=O)c(=O)c2c(C)c(-n3nccn3)sc21)O[C@H]1CC[C@@H](O)CC1 [Compound I-173, 1-((R)-2-(S-fluoro-2-methoxyphenyl)-2-(((1s, 4S)-4-hydroxycyclohexyl)oxy)ethyl)-5-methyl-3-((S)-2-oxopiperidin-3-yl)-6-(2H-1,2,3-triazol-2-yl)thieno[2,3-d]pyrimidine-2,4(1H, 3H)-dione]	2.1 to 4 (≈ 3.43 to 6.53 µM)	2.1 to 4 (≈ 3.43 to 6.53 µM)	2 to 10	0.7 to 2	2.1 to 4 (≈ 3.43 to 6.53 µM)
COc1ccc(F)cc1[C@H](Cn1c(=O)n([C@H]2CCNC2=O)c(=O)c2c(C)c(-c3ncco3)sc21)O[C@H]1CC[C@@H](O)CC1 [Compound I-192, 1-((R)-2-(5-fluoro-2-methoxyphenyl)-2-(((1 s, 4S)4-hydroxycyclohexyl)oxy)ethyl)-5-methyl-6-(oxazol-2-yl)-3-((S)-2-oxopyrrolidin-3-yl)thieno[2,3-d]pyrimidine-2,4(1H,3H)-dione]			2 to 10	0.7 to 2	
COc1ccc(F)cc1[C@H](Cn1c(=O)n([C@@H]2CCN(C)C2=O)c(=O)c2c(C)c(-n3nccn3)sc21)O[C@H]1C[C@H](O)C1 [Compound I-185, 1-((R)-2-(5-fluoro-2-methoxyphenyl)-2-((1r,3R)-3-hydroxycyclobutoxy)ethyl)-5-methyl-3-((R)-1-methyl-2-oxopyrrolidin-3-yl)-6-(2H-1,2,3-triazol-2-yl)thieno[2,3-d]pyrimidine-2,4(1H,3H)-dione]			2 to 10	0.7 to 2	
COCCO[C@@H](Cn1c(=O)n([C@]2(C)CCNC2=O)c(=O)c2c(C)c(-n3nccn3)sc21)c1cc(F)ccc1OC [Compound I-140, 1-((R)-2-(5-fluoro-2-methoxyphenyl)-2-(2-methoxy-ethoxy)ethyl)-5-methyl-3-((R)-3-methyl-2-oxopyrrolidin-3-yl)-6-(2H-1,2,3-triazol-2-yl)thieno[2,3-d]pyrimidine-2,4(1H,3H)-dione]			> 1000	> 1000	
COCCO[C@@H](Cn1c(=O)n([C@@]2(C)CCNC2=O)c(=O)c2c(C)c(-n3nccn3)sc21)c1cc(F)ccc1OC [Compound I-141, 1-((R)-2-(5-fluoro-2-methoxyphenyl)-2-(2-methoxyethoxy)ethyl)-5-methyl-3-((S)-3-methyl-2-oxopyrrolidin-3-yl)-6-(2H-1,2,3-triazol-2-yl)thieno[2,3-d]pyrimidine-2,4(1H,3H)-dione]			> 1000	> 1000	
COc1ccc(F)cc1[C@H](Cn1c(=O)n(C2CCN(C)C2=O)c(=O)c2c(C)c(-n3nccn3)sc21)OC1CCOCC1 (stereo partly drawn) [Compound I-10, 1-((R)-2-(5-fluoro-2-methoxyphenyl)-2-((tetrahydro-2H-pyran-4-yl)oxy)ethyl)-5-methyl-3-(1-methyl-2-oxopyrrolidin-3-yl)-6-(2H-1,2,3-triazol-2-yl)thieno[2,3-d]pyrimidine-2,4(1H,3H)-dione]	0.25 to 1 (≈ 0.418 to 1.67 µM)	0.25 to 1 (≈ 0.418 to 1.67 µM)	2 to 10	0.7 to 2	
COc1ccccc1[C@H](Cn1c(=O)n([C@H]2CCCNC2=O)c(=O)c2c(C)c(-c3ncco3)sc21)OCCO [Compound I-60, 1-((R)-2-(2-hydroxyethoxy)-2-(2-methoxyphenyl)ethyl)-5-methyl-6-(oxazol-2-yl)-3-((S)-2-oxopiperidin-3-yl)thieno[2,3-d]pyrimidine-2,4(1H,3H)-dione]			10 to 100	0.7 to 2	
COc1ccc(F)cc1[C@H](Cn1c(=O)n([C@@H]2CCN(C)C2=O)c(=O)c2c(C)c(-c3ncco3)sc21)O[C@H]1CC[C@@H](O)CC1 [Compound I-193, 1-((R)-2-(5-fluoro-2-methoxyphenyl)-2-(((1 s, 4S)-4-hydroxycyclohexyl)oxy)ethyl)-5-methyl-3-((R)-1-methyl-2-oxopyrrolidin-3-yl)-6-(oxazol-2-yl)thieno[2,3-d]pyrimidine-2,4(1H,3H)-dione]			2 to 10	0.7 to 2	
